Measured values from PubChem BioAssay (NCI).
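A five-concentration, 48-hour dose response in 96-well plates underlies each endpoint, interpolated linearly between surrounding concentrations. GI50: concentration for 50% inhibition of growth. TGI: concentration producing complete growth inhibition.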

How the values were obtained:
Experiment in all cases: NCI tumour cell line growth inhibition, 48 h
SNB-75 CNS = test system: SNB-75 CNS
OVCAR-8 ovarian = test system: OVCAR-8 ovarian
SK-MEL-5 melanoma = test system: SK-MEL-5 melanoma
HL-60(TB) leukemia = test system: HL-60(TB) leukemia
HOP-92 NSCLC = test system: HOP-92 NSCLC
SNB-19 CNS = test system: SNB-19 CNS
NCI-H226 lung = test system: NCI-H226 lung
SK-MEL-28 melanoma = test system: SK-MEL-28 melanoma
CCRF-CEM leukemia = test system: CCRF-CEM leukemia
HT29 colon = test system: HT29 colon
CAKI-1 renal = test system: CAKI-1 renal
UO-31 renal = test system: UO-31 renal
NCI/ADR-RES ovarian = test system: NCI/ADR-RES ovarian
SF-268 CNS = test system: SF-268 CNS
LOX IMVI melanoma = test system: LOX IMVI melanoma
DU-145 prostate = test system: DU-145 prostate
KM12 colon = test system: KM12 colon
MALME-3M melanoma = test system: MALME-3M melanoma
RPMI-8226 leukemia = test system: RPMI-8226 leukemia
ACHN renal = test system: ACHN renal
IGROV1 ovarian = test system: IGROV1 ovarian
HCC-2998 colon = test system: HCC-2998 colon
SF-539 CNS = test system: SF-539 CNS
A549 NSCLC = test system: A549 NSCLC
U251 CNS = test system: U251 CNS
NCI-H522 lung = test system: NCI-H522 lung
SN12C renal = test system: SN12C renal
A498 renal = test system: A498 renal
COLO 205 colon = test system: COLO 205 colon
OVCAR-5 ovarian = test system: OVCAR-5 ovarian
NCI-H460 lung = test system: NCI-H460 lung
HCT-116 colon = test system: HCT-116 colon
786-0 renal = test system: 786-0 renal
SW-620 colon = test system: SW-620 colon
RXF 393 renal = test system: RXF 393 renal
MOLT-4 leukemia = test system: MOLT-4 leukemia
NCI-H23 lung = test system: NCI-H23 lung
HS 578T breast = test system: HS 578T breast
HCT-15 colon = test system: HCT-15 colon
MDA-MB-231 breast = test system: MDA-MB-231 breast
BT-549 breast = test system: BT-549 breast
EKVX NSCLC = test system: EKVX NSCLC
MDA-MB-435 = test system: MDA-MB-435
PC-3 prostate = test system: PC-3 prostate
SR leukemia = test system: SR leukemia
K-562 leukemia = test system: K-562 leukemia
OVCAR-3 ovarian = test system: OVCAR-3 ovarian
SF-295 CNS = test system: SF-295 CNS
HOP-62 NSCLC = test system: HOP-62 NSCLC
OVCAR-4 ovarian = test system: OVCAR-4 ovarian
UACC-257 melanoma = test system: UACC-257 melanoma
TK-10 renal = test system: TK-10 renal
MCF7 breast = test system: MCF7 breast
SK-MEL-2 melanoma = test system: SK-MEL-2 melanoma
UACC-62 melanoma = test system: UACC-62 melanoma
SK-OV-3 ovarian = test system: SK-OV-3 ovarian
M14 melanoma = test system: M14 melanoma

Work on `S=c1ncc2n[nH]nc2[nH]1` yielded a TGI (SNB-75 CNS) greater than 100 µM, a TGI (OVCAR-8 ovarian) greater than 100 µM and a TGI (SK-MEL-5 melanoma) greater than 100 µM. The TGI (HL-60(TB) leukemia) was greater than 100 µM, the TGI (HOP-92 NSCLC) was greater than 100 µM and the TGI (SNB-19 CNS) was greater than 100 µM. It also gave a TGI (NCI-H226 lung) greater than 100 µM, a TGI (SK-MEL-28 melanoma) greater than 100 µM and a TGI (CCRF-CEM leukemia) greater than 100 µM. It also gave a TGI (HT29 colon) greater than 100 µM, a TGI (CAKI-1 renal) greater than 100 µM and a TGI (UO-31 renal) greater than 100 µM. It also gave a TGI (NCI/ADR-RES ovarian) greater than 100 µM, a TGI (SF-268 CNS) greater than 100 µM and a TGI (LOX IMVI melanoma) greater than 100 µM. It also gave a TGI (DU-145 prostate) greater than 100 µM, a TGI (KM12 colon) greater than 100 µM and a TGI (MALME-3M melanoma) greater than 100 µM. The TGI (RPMI-8226 leukemia) was greater than 100 µM, the TGI (ACHN renal) was greater than 100 µM and the TGI (IGROV1 ovarian) was greater than 100 µM. It also gave a TGI (HCC-2998 colon) greater than 100 µM, a TGI (SF-539 CNS) greater than 100 µM and a TGI (A549 NSCLC) greater than 100 µM. It also gave a TGI (U251 CNS) greater than 100 µM, a TGI (NCI-H522 lung) greater than 100 µM and a TGI (SN12C renal) greater than 100 µM. It also gave a TGI (A498 renal) greater than 100 µM, a TGI (COLO 205 colon) greater than 100 µM and a TGI (OVCAR-5 ovarian) greater than 100 µM. For the same molecule, the TGI (NCI-H460 lung) was greater than 100 µM, the TGI (HCT-116 colon) was greater than 100 µM and the TGI (786-0 renal) was greater than 100 µM. It also gave a TGI (SW-620 colon) greater than 100 µM, a TGI (RXF 393 renal) greater than 100 µM and a TGI (MOLT-4 leukemia) greater than 100 µM. For the same molecule, the TGI (NCI-H23 lung) was greater than 100 µM, the TGI (HS 578T breast) was greater than 100 µM and the TGI (HCT-15 colon) was greater than 100 µM. The TGI (MDA-MB-231 breast) was greater than 100 µM, the TGI (BT-549 breast) was greater than 100 µM and the TGI (EKVX NSCLC) was greater than 100 µM. For the same molecule, the TGI (MDA-MB-435) was greater than 100 µM, the TGI (PC-3 prostate) was greater than 100 µM and the TGI (SR leukemia) was greater than 100 µM. For the same molecule, the TGI (K-562 leukemia) was greater than 100 µM, the TGI (OVCAR-3 ovarian) was greater than 100 µM and the TGI (SF-295 CNS) was greater than 100 µM. The TGI (HOP-62 NSCLC) was greater than 100 µM, the TGI (OVCAR-4 ovarian) was greater than 100 µM and the TGI (UACC-257 melanoma) was greater than 100 µM. It also gave a TGI (TK-10 renal) greater than 100 µM and a TGI (MCF7 breast) greater than 100 µM.

`COc1ccc([As]=[As]c2ccc(OC)c(NCS(=O)(=O)O)c2)cc1NCS(=O)(=O)O` (stereo not given) was tested, and the GI50 (SNB-75 CNS) was 1.27 µM, the TGI (SNB-75 CNS) was 2.8 µM and the GI50 (OVCAR-8 ovarian) was 2.48 µM. The TGI (OVCAR-8 ovarian) was 6.84 µM, the GI50 (SK-MEL-5 melanoma) was 1.86 µM and the TGI (SK-MEL-5 melanoma) was 4.27 µM. It also gave a GI50 (HL-60(TB) leukemia) of 1.51 µM, a TGI (HL-60(TB) leukemia) of 11.7 µM and a GI50 (HOP-92 NSCLC) of 1.45 µM. For the same molecule, the TGI (HOP-92 NSCLC) was 3.24 µM, the GI50 (SNB-19 CNS) was 1.82 µM and the TGI (SNB-19 CNS) was 3.68 µM. For the same molecule, the GI50 (NCI-H226 lung) was 4.07 µM, the TGI (NCI-H226 lung) was 17.3 µM and the GI50 (SK-MEL-28 melanoma) was 1.45 µM. For the same molecule, the TGI (SK-MEL-28 melanoma) was 3 µM, the GI50 (CCRF-CEM leukemia) was 0.415 µM and the TGI (CCRF-CEM leukemia) was 3.14 µM. It also gave a GI50 (HT29 colon) of 2.25 µM, a TGI (HT29 colon) of 5.37 µM and a GI50 (UO-31 renal) of 1.46 µM. For the same molecule, the TGI (UO-31 renal) was 3.16 µM, the GI50 (NCI/ADR-RES ovarian) was 3.49 µM and the TGI (NCI/ADR-RES ovarian) was 27.1 µM. The GI50 (SF-268 CNS) was 1.62 µM, the TGI (SF-268 CNS) was 4.12 µM and the GI50 (SK-MEL-2 melanoma) was 1.91 µM. For the same molecule, the TGI (SK-MEL-2 melanoma) was 4.54 µM, the GI50 (LOX IMVI melanoma) was 1.34 µM and the TGI (LOX IMVI melanoma) was 4.49 µM. The GI50 (DU-145 prostate) was 3.56 µM, the TGI (DU-145 prostate) was 13.8 µM and the GI50 (KM12 colon) was 2.98 µM. For the same molecule, the TGI (KM12 colon) was 10.5 µM, the GI50 (MALME-3M melanoma) was 1.41 µM and the TGI (MALME-3M melanoma) was 3.34 µM. For the same molecule, the GI50 (RPMI-8226 leukemia) was 0.926 µM, the TGI (RPMI-8226 leukemia) was 5.93 µM and the GI50 (ACHN renal) was 1.62 µM. It also gave a TGI (ACHN renal) of 3 µM, a GI50 (IGROV1 ovarian) of 1.19 µM and a TGI (IGROV1 ovarian) of 3.4 µM. The GI50 (HCC-2998 colon) was 2.67 µM, the TGI (HCC-2998 colon) was 8.8 µM and the GI50 (SF-539 CNS) was 1.39 µM. The TGI (SF-539 CNS) was 3.43 µM, the GI50 (A549 NSCLC) was 3.04 µM and the TGI (A549 NSCLC) was 9.96 µM. The GI50 (U251 CNS) was 0.768 µM, the TGI (U251 CNS) was 2.25 µM and the GI50 (NCI-H522 lung) was 0.324 µM. It also gave a TGI (NCI-H522 lung) of 1.53 µM, a GI50 (SN12C renal) of 1.54 µM and a TGI (SN12C renal) of 3.34 µM. It also gave a GI50 (A498 renal) of 1.65 µM, a TGI (A498 renal) of 3.26 µM and a GI50 (COLO 205 colon) of 1.52 µM. The TGI (COLO 205 colon) was 3.46 µM, the GI50 (OVCAR-5 ovarian) was 2.02 µM and the TGI (OVCAR-5 ovarian) was 4.22 µM. It also gave a GI50 (NCI-H460 lung) of 3.49 µM, a TGI (NCI-H460 lung) of 12.2 µM and a GI50 (HCT-116 colon) of 1.7 µM. For the same molecule, the TGI (HCT-116 colon) was 3.2 µM, the GI50 (786-0 renal) was 1.63 µM and the TGI (786-0 renal) was 3.51 µM. For the same molecule, the GI50 (SW-620 colon) was 1.17 µM, the TGI (SW-620 colon) was 3.04 µM and the GI50 (UACC-62 melanoma) was 1.86 µM. For the same molecule, the TGI (UACC-62 melanoma) was 4.6 µM, the GI50 (RXF 393 renal) was 1.41 µM and the TGI (RXF 393 renal) was 3.09 µM. For the same molecule, the GI50 (MOLT-4 leukemia) was 1.33 µM, the TGI (MOLT-4 leukemia) was 6.18 µM and the GI50 (SK-OV-3 ovarian) was 10 µM. For the same molecule, the TGI (SK-OV-3 ovarian) was 21.8 µM, the GI50 (NCI-H23 lung) was 2.57 µM and the TGI (NCI-H23 lung) was 8.62 µM. For the same molecule, the GI50 (HS 578T breast) was 3.21 µM, the TGI (HS 578T breast) was greater than 100 µM and the GI50 (HCT-15 colon) was 1.47 µM. It also gave a TGI (HCT-15 colon) of 3.31 µM, a GI50 (MDA-MB-231 breast) of 1.56 µM and a TGI (MDA-MB-231 breast) of 3.4 µM. It also gave a GI50 (BT-549 breast) of 1.11 µM, a TGI (BT-549 breast) of 2.45 µM and a GI50 (EKVX NSCLC) of 1.36 µM. It also gave a TGI (EKVX NSCLC) of 7.26 µM, a GI50 (MDA-MB-435) of 2.03 µM and a TGI (MDA-MB-435) of 5.26 µM. It also gave a GI50 (PC-3 prostate) of 3.14 µM, a TGI (PC-3 prostate) of 11.7 µM and a GI50 (SR leukemia) of 0.691 µM. It also gave a TGI (SR leukemia) of 4.88 µM, a GI50 (M14 melanoma) of 2.15 µM and a TGI (M14 melanoma) of 5.69 µM. It also gave a GI50 (K-562 leukemia) of 0.615 µM, a TGI (K-562 leukemia) of 11.1 µM and a GI50 (OVCAR-3 ovarian) of 1.57 µM. For the same molecule, the TGI (OVCAR-3 ovarian) was 3.06 µM, the GI50 (SF-295 CNS) was 3.01 µM and the TGI (SF-295 CNS) was 9.48 µM. For the same molecule, the GI50 (HOP-62 NSCLC) was 2.4 µM, the TGI (HOP-62 NSCLC) was 5.9 µM and the GI50 (OVCAR-4 ovarian) was 1.27 µM. It also gave a TGI (OVCAR-4 ovarian) of 2.6 µM, a GI50 (UACC-257 melanoma) of 1.62 µM and a TGI (UACC-257 melanoma) of 3.37 µM. For the same molecule, the GI50 (TK-10 renal) was 1.86 µM, the TGI (TK-10 renal) was 3.55 µM and the GI50 (MCF7 breast) was 1.09 µM. The TGI (MCF7 breast) was 3.44 µM.
